From US9068081B2, “Thiophene azo dyes and laundry care compositions containing the same” (MILLIKEN & COMPANY, priority 2010, dated 2015)

Test: Aqueous partition value of a dye (water/1-octanol partitioning)
Type: physicochemical
Conditions: deionized water / 1-octanol 10.0 mL each, absorbance at dye λmax, (Af/Ai)×100%
Description: Dissolve in deionized water to a final volume of 10.0 mL an amount of dye sufficient to provide a solution absorbance value between 0.25 and 1.0, said absorbance being determined at the dye λmax between 400 nm and 750 nm, using a cuvette with 1.0 cm path length. Measure the absorbance of the sample at the dye λmax in a UV/Vis spectrophotometer, then transfer the entire 10.0 mL solution to a 50.0 mL plastic centrifuge tube. Add 10.0 mL of 1-octanol, cap the tube, and mix vigorously for 30 seconds using a Vortex™ mixer. Leave the tube standing undisturbed until the layers cleanly phase separate.
Using a transfer pipette, withdraw an aliquot of the aqueous (bottom) layer and transfer it to a cuvette with 1.0 cm path length for spectrophotometric analysis. Analyze the solution as before, and quantify the absorbance loss at λmax as “% of Dye Remaining in Aqueous Layer” as detailed below: % of Dye Remaining in Aqueous Layer=Aqueous Partition Value (APV)=(Af/Ai)×100% wherein Ai is the initial solution absorbance at λmax and Af is the final solution absorbance at λmax. II. Method for Determining Hueing Efficiency for Detergents • a.) Two 25 cm×25 cm fabric swatches of 16 oz white cotton interlock knit fabric (270 g/square meter, brightened with Uvitex BNB fluorescent whitening agent, from Test Fabrics. P.O. Box 26, Weston, Pa., 18643) are obtained. • b.) Prepare two one liter aliquots of tap water containing 1.55 g of AATCC standard heavy duty liquid (HDL) test detergent. • c.) Add a sufficient amount the dye to be tested to one of the aliquots from Step b.) above to produce an aqueous solution absorbance of 1 AU. • d.) Wash one swatch from a.) above in one of the aliquots of water containing 1.55 g of AATCC standard heavy duty liquid (HDL) test detergent and wash the other swatch in the other aliquot. Such washing step should be conducted for 30 minutes at room temperature with agitation. After such washing step separately rinse the swatches in tap water and air dry the swatches in the dark. • e.) After rinsing and drying each swatch, the hueing efficiency, DE*eff, of the dye is assessed by determining the L*, a*, and b* value measurements of each swatch using a Hunter LabScan XE reflectance spectrophotometer with D65 illumination, 10° observer and UV filter excluded. The hueing efficiency of the dye is then calculated using the following equation: DE*eff=((L*c−Ls)^2+(a*c−a*s)^2+(b*c−b*s)^2)^1/2 • wherein the subscripts c and s respectively refer to the L*, a*, and b* values measured for the control, i.e., the fabric sample washed in detergent with no dye, and the fabric sample washed in detergent containing the dye to be screened. III. Method for Determining Wash Removability • a.) Prepare two separate 150 ml aliquots of HDL detergent solution, according to AATCC Test Method 61-2003, Test 2A and containing 1.55 g/liter of the AATCC HDL formula in distilled water. • b.) A 15 cm×5 cm sample of each fabric swatch from the Method for Determining of Hueing Efficiency For Detergents described above is washed in a Launderometer for 45 minutes at 49° C. in 150 ml of a the HDL detergent solution prepared according to Step 11. a.) above. • c.) The samples are rinsed with separate aliquots of rinse water and air dried in the dark, and then L*, a*, and b* value measurements of each swatch are taken using a Hunter LabScan XE reflectance spectrophotometer with D65 illumination, 10° observer and UV filter excluded. The amount of residual coloration is assessed by measuring the DE*res, calculated using the following equation: DE*res=((L*c−L*s)^2+(a*c−a*s)^2+(b*c−b*s)^2)^1/2 • wherein the subscripts c and s respectively refer to the L*, a*, and b* values measured for the control, i.e., the fabric sample initially washed in detergent with no dye, and the fabric sample initially washed in detergent containing the dye to be screened. The wash removal value for the dye is then calculated according to the formula: % removal=100×(1−DE*res/DE*eff) C. Test Results […]

| SMILES | % Dye in Water Layer (Aqueous Partition Value) |
| --- | --- |
| COc1cc(/N=N/c2sc(C#N)c(C)c2C#N)c(C)cc1N(CCn1cc[n+](C)c1)CCn1cc[n+](C)c1 [Example 1] | 97% |
| Cc1cc(N(CCn2cc[n+](C)c2)CCn2cc[n+](C)c2)ccc1/N=N/c1sc(C#N)c(C)c1C#N [Example 2] | 83% |
| CCN(CC[N+](CC)(CC)CC)c1ccc(/N=N/c2sc(C#N)c(C)c2C#N)c(C)c1 [Example 7] | 15% |
| CCN(CCOCCOCCOCCOCC[N+](CC)(CC)CC)c1ccc(/N=N/c2sc(C#N)c(C)c2C#N)c(C)c1 [Example 12] | 15% |
| CCN(CCOCCOCCOCCOCCn1cc[n+](C)c1)c1ccc(/N=N/c2sc(C#N)c(C)c2C#N)c(C)c1 [Example 13] | 20% |
| CC[N+](CC)(CC)CCOCCOCCN(CCOCC[N+](CC)(CC)CC)c1cc(C)c(/N=N/c2sc(C#N)c(C)c2C#N)cc1OC [Example 18] | 49% |
| CC[N+](CC)(CC)CCOCCOCCN(CCOCC[N+](CC)(CC)CC)c1cc(OC)c(/N=N/c2sc(C#N)c(C)c2C#N)cc1OC [Example 19] | 78% |
| COc1cc(/N=N/c2sc(C#N)c(C)c2C#N)c(C)cc1N(CCOCCOCC[N+](C)(C)CCO)CCOCC[N+](C)(C)CCO [Example 21] | 75% |
| COc1cc(/N=N/c2sc(C#N)c(C)c2C#N)c(C)cc1N(CCOCCOCC[N+](CCO)(CCO)CCO)CCOCC[N+](CCO)(CCO)CCO [Example 22] | 56% |
| CC[N+](CC)(CC)CCOCCOCCN(CCOCC[N+](CC)(CC)CC)c1ccc(/N=N/c2sc(C#N)c(C)c2C#N)c(C)c1 [Example 35] | 66% |
| CC[N+](CC)(CC)CCN(CC[N+](CC)(CC)CC)c1ccc(/N=N/c2sc(C#N)c(C)c2C#N)c(C)c1 [Example 36] | 94% |
